# Where a name gives a salt, the structure may show the parent alone.
# Columns and labels:
# human PLK4 = human PLK4 (Homo sapiens (Human), UniProt O00444); assay: PLK4 inhibition assay (indirect ELISA); assay type: biochemical; details: read-out: PLK4 IC50 Ranges
# Aurora B = Aurora B (Homo sapiens (Human), UniProt Q96GD4); assay: Aurora B inhibition assay (Z-Lyte); assay type: biochemical; details: read-out: Aurora B IC50 Ranges
# Aurora B, sequence (Q96GD4 whole entry): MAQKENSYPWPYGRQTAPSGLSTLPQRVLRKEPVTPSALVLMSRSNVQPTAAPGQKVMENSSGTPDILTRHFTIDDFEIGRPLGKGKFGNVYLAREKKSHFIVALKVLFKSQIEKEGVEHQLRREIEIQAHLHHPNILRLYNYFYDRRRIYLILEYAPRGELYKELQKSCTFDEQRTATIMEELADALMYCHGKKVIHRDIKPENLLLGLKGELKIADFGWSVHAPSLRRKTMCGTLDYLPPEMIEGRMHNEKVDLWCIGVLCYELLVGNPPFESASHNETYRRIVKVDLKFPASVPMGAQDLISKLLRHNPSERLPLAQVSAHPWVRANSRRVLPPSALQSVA
# human PLK4, sequence (O00444 1-391): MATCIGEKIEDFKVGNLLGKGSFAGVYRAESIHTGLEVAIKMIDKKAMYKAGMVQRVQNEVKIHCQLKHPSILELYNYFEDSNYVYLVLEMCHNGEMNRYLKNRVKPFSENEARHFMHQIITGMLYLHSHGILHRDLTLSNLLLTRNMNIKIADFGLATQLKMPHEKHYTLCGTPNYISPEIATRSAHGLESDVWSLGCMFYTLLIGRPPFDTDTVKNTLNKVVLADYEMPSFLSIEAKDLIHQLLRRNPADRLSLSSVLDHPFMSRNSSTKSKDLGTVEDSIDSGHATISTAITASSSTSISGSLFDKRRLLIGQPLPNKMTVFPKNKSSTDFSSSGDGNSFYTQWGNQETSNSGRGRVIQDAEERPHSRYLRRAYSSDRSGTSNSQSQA
SMILES,IC50 (human PLK4),IC50 (Aurora B)
"COCCN1C(=O)[C@@]2(C[C@H]2c2ccc3c(/C=C/c4ccc(CN(C)C)cc4)n[nH]c3c2)c2ccccc21 (relative stereo) [Example A180, (1R*,2S*)-(E)-2-(3-(4-((dimethylamino)methyl)styryl)-1H-indazol-6-yl)-1′-(2-methoxyethyl)spiro[cyclopropane-1,3′-indolin]-2′-one 2,2,2-trifluoroacetate]",< 100 nM,< 100 nM
"O=C1Nc2ccccc2[C@]12C[C@H]2c1ccc2c(/C=C/c3ccccn3)n[nH]c2c1 (relative stereo) [Example A53, (1R*,2S*)-2-(3-((E)-2-(pyridin-2-yl)vinyl)-1H-indazol-6-yl)spiro[cyclopropane-1,3′-indolin]-2′-one]",< 100 nM,< 100 nM
"CCN1CCN(c2ccc(-c3n[nH]c4cc([C@@H]5C[C@@]56C(=O)Nc5ccc(OC)cc56)ccc34)cc2)CC1 (relative stereo) [Example A98, (1R*,2S*)-2-(3-(4-(4-ethylpiperazin-1-yl)phenyl)-1H-indazol-6-yl)-5′-methoxyspiro[cyclopropane-1,3′-indolin]-2′-one 2,2,2-trifluoroacetate]",< 100 nM,< 100 nM
"CN1CCN(c2ccc(-c3n[nH]c4cc([C@@H]5C[C@@]56C(=O)N(C)c5ccccc56)ccc34)cn2)CC1 (relative stereo) [Example A93, (1R*,2S*)-1′-methyl-2-(3-(6-(4-methylpiperazin-1-yl)pyridin-3-yl)-1H-indazol-6-yl)spiro[cyclopropane-1,3′-indolin]-2′-one bis(2,2,2-trifluoroacetate)]",< 100 nM,< 100 nM
"COc1ccc2c(c1)[C@]1(C[C@H]1c1ccc3c(I)n[nH]c3c1)C(=O)N2 [Example A7, (1R,2S)-2-(3-iodo-1H-indazol-6-yl)-5′-methoxyspiro[cyclopropane-1,3′-indolin]-2′-one]",< 100 nM,100 to 1000 nM
"COc1ccc2c(c1)[C@]1(C[C@H]1c1ccc3c(/C=C/c4ccc(CN5CCOCC5)s4)n[nH]c3c1)C(=O)N2 [Example A105, (1R,2S)-5′-methoxy-2-(3-((E)-2-(5-(morpholinomethyl)thiophen-2-yl)vinyl)-1H-indazol-6-yl)spiro[cyclopropane-1,3′-indolin]-2′-one hydrochloride]",< 100 nM,< 100 nM
"N#Cc1ccc(/C=C/c2n[nH]c3cc([C@@H]4C[C@@]45C(=O)Nc4ccccc45)ccc23)cc1 (relative stereo) [Example A54, 4-((E)-2-(6-((1R*,2S*)-2′-oxospiro[cyclopropane-1,3′-indoline]-2-yl)-1H-indazol-3-yl)vinyl)benzonitrile]",< 100 nM,100 to 1000 nM
"CC(C)(c1ccc(/C=C/c2n[nH]c3cc([C@@H]4C[C@@]45C(=O)Nc4ccccc45)ccc23)cc1)N1CCOCC1 [Example A80, (1R,2S)-(E)-2-(3-(4-(2-morpholinopropan-2-yl)styryl)-1H-indazol-6-yl)spiro[cyclopropane-1,3′-indolin]-2′-one 2,2,2-trifluoroacetate salt]",< 100 nM,100 to 1000 nM
"O=C1Nc2ccccc2[C@]12C[C@H]2c1ccc2c(/C=C/c3ccc(OCCN4CCOCC4)cc3)n[nH]c2c1 [Example A204, (1R,2S)-(E)-2-(3-(4-(2-morpholinoethoxy)styryl)-1H-indazol-6-yl)spiro[cyclopropane-1,3′-indolin]-2′-one 2,2,2-trifluoroacetate]",< 100 nM,< 100 nM
"COc1ccc2c(c1)[C@]1(C[C@H]1c1ccc3c(/C=C/c4ccncc4)n[nH]c3c1)C(=O)N2 [Example A111, (1R,2S)-5′-methoxy-2-(3-((E)-2-(pyridin-4-yl)vinyl)-1H-indazol-6-yl)spiro[cyclopropane-1,3′-indolin]-2′-one 2,2,2-trifluoroacetate]",< 100 nM,< 100 nM
"O=C1Nc2ccccc2[C@]12C[C@H]2c1ccc2c(/C=C/c3ccc(CN4CCOCC4)c(F)c3)n[nH]c2c1 [Example A200, (1R,2S)-(E)-2-(3-(3-fluoro-4-(morpholinomethyl)styryl)-1H-indazol-6-yl)spiro[cyclopropane-1,3′-indolin]-2′-one 2,2,2-trifluoroacetate]",< 100 nM,< 100 nM
"COc1ccc2c(c1)[C@]1(C[C@H]1c1ccc3c(/C=C/c4ccc(OC5CCN(C)CC5)cc4)n[nH]c3c1)C(=O)N2 [Example A79, (1R,2S)-(E)-5′-methoxy-2-(3-(4-(1-methylpiperidin-4-yloxy)styryl)-1H-indazol-6-yl)spiro[cyclopropane-1,3′-indolin]-2′-one 2,2,2-trifluoroacetate salt]",< 100 nM,< 100 nM
"CN1CCc2cc(-c3n[nH]c4cc([C@@H]5C[C@@]56C(=O)Nc5ccccc56)ccc34)ccc2C1 [Example A76, (1R,2S)-2-(3-(2-methyl-1,2,3,4-tetrahydroisoquinolin-6-yl)-1H-indazol-6-yl)spiro[cyclopropane-1,3′-indolin]-2′-one 2,2,2-trifluoroacetate salt]",< 100 nM,< 100 nM
"COc1ccc2c(c1)[C@]1(C[C@H]1c1ccc3c(-c4ccc(N5CC[C@@H](N(C)C)C5)cc4)n[nH]c3c1)C(=O)N2 [Example A127, (1R,2S)-2-(3-(4-((R)-3-(dimethylamino)pyrrolidin-1-yl)phenyl)-1H-indazol-6-yl)-5′-methoxyspiro[cyclopropane-1,3′-indolin]-2′-one 2,2,2-trifluoroacetate]",< 100 nM,< 100 nM
"COc1ccc2c(c1)[C@]1(C[C@H]1c1ccc3c(/C=C/c4ccc(CN5CCCC5)cc4)n[nH]c3c1)C(=O)N2 [Example A83, (1R,2S)-(E)-5′-methoxy-2-(3-(4-(pyrrolidin-1-ylmethyl)styryl)-1H-indazol-6-yl)spiro[cyclopropane-1,3′-indolin]-2′-one 2,2,2-trifluoroacetate]",< 100 nM,< 100 nM
"COc1ccc2c(c1)[C@]1(C[C@H]1c1ccc3c(/C=C/c4cccc(CN(C)C)c4)n[nH]c3c1)C(=O)N2 (relative stereo) [Example A135, (1R*,2S*)-2-(3-(3-((dimethylamino)methyl)styryl-1H-indazol-6-yl)-5′-methoxyspiro[cyclopropane-1,3′-indolin]-2′-one 2,2,2-trifluoroacetate]",< 100 nM,< 100 nM
"COc1ccc2c(c1)[C@]1(C[C@H]1c1ccc3c(-c4ccc(CCN5CCOCC5)cc4)n[nH]c3c1)C(=O)N2 (relative stereo) [Example A159, (1R*,2S*)-5′-methoxy-2-(3-(4-(2-morpholinoethyl)phenyl)-1H-indazol-6-yl)spiro[cyclopropane-1,3′-indolin]-2′-one 2,2,2-trifluoroacetate]",< 100 nM,< 100 nM

# The next lines start with the values.
IC50 (human PLK4),IC50 (Aurora B),SMILES
< 100 nM,< 100 nM,"COc1ccc2c(c1)[C@]1(C[C@H]1c1ccc3c(/C=C/c4ccc(N5CCN(C)CC5)cc4)n[nH]c3c1)C(=O)N2 (relative stereo) [Example A174, (1R*,2S*)-(E)-5′-methoxy-2-(3-(4-(4-methylpiperazin-1-yl)styryl)-1H-indazol-6-yl)spiro[cyclopropane-1,3′-indolin]-2′-one 2,2,2-trifluoroacetate]"
< 100 nM,< 100 nM,"CCc1ccc2c(c1)[C@]1(C[C@H]1c1ccc3c(-c4ccc(N5CCN(C)CC5)cc4)n[nH]c3c1)C(=O)N2 (relative stereo) [Example A142, (1R*,2S*)-5′-ethyl-2-(3-(4-(4-methylpiperazin-1-yl)phenyl)-1H-indazol-6-yl)spiro[cyclopropane-1,3′-indolin]-2′-one 2,2,2-trifluoroacetate]"
< 100 nM,< 100 nM,"COc1ccc2c(c1)[C@]1(C[C@H]1c1ccc3c(-c4ccc(N5CCN(C)CC5)nc4)n[nH]c3c1)C(=O)N2C (relative stereo) [Example A104, (1R*,2S*)-5′-methoxy-1′-methyl-2-(3-(6-(4-methylpiperazin-1-yl)pyridin-3-yl)-1H-indazol-6-yl)spiro[cyclopropane-1,3′-indolin]-2′-one bis(2,2,2-trifluoroacetate)]"
< 100 nM,< 100 nM,"CCN(CC)Cc1c(F)cc(/C=C/c2n[nH]c3cc([C@@H]4C[C@@]45C(=O)Nc4ccccc45)ccc23)cc1F [Example A221, (1R,2S)-(E)-2-(3-(4-((diethylamino)methyl)-3,5-difluorostyryl)-1H-indazol-6-yl)spiro[cyclopropane-1,3′-indolin]-2′-one 2,2,2-trifluoroacetate]"
< 100 nM,< 100 nM,"COc1ccc2c(c1)[C@]1(C[C@H]1c1ccc3c(-c4ccc(OCCn5ccnc5)cc4)n[nH]c3c1)C(=O)N2 [Example A108, (1R,2S)-2-(3-(4-(2-(1H-imidazol-1-yl)ethoxy)phenyl)-1H-indazol-6-yl)-5′-methoxyspiro[cyclopropane-1,3′-indolin]-2′-one 2,2,2-trifluoroacetate]"
< 100 nM,< 100 nM,"CN(C)Cc1ccc(/C=C/c2n[nH]c3cc([C@@H]4C[C@@]45C(=O)N(CC(N)=O)c4ccccc45)ccc23)cc1 (relative stereo) [Example A160, 2-((1R*,2S*)-(E)-2-(3-(4-((dimethylamino)methyl)styryl)-1H-indazol-6-yl)-2′-oxospiro[cyclopropane-1,3′-indoline]-1′-yl)acetamide 2,2,2-trifluoroacetate]"
< 100 nM,< 100 nM,"CN1CCN(c2ccc(/C=C/c3n[nH]c4cc([C@@H]5C[C@@]56C(=O)N(C)c5ccccc56)ccc34)cn2)CC1 [Example A110, (1R,2S)-1′-methyl-2-(3-((E)-2-(6-(4-methylpiperazin-1-yl)pyridin-3-yl)vinyl)-1H-indazol-6-yl)spiro[cyclopropane-1,3′-indolin]-2′-one bis(2,2,2-trifluoro acetate)]"
< 100 nM,< 100 nM,"COc1ccc2c(c1)[C@]1(C[C@H]1c1ccc3c(-c4ccc(N5CCNCC5)cc4)n[nH]c3c1)C(=O)N2C [Example A101, (1R,2S)-5′-methoxy-1′-methyl-2-(3-(4-(piperazin-1-yl)phenyl)-1H-indazol-6-yl)spiro[cyclopropane-1,3′-indolin]-2′-one 2,2,2-trifluoroacetate]"
